The text below walks through data of patent US5352608A (priority 1992, dated 1994).

The subject of assay [1] is Rhodocyclus gelatinosus str-1. Kind of assay: Intrinsic HLR to TeO3^2- (MIC). The assay is classed as cell-based.
A further assay concerns R. sphaeroides 2.4.1. Kind of assay: Isolation of tellurium from membrane fractions (Te^IV to Te^o conversion). In kind it is cell-based, Rhodobacter sphaeroides. The method, then: Two one-liter cultures of R. sphaeroides 2.4.1 were grown photoheterotrophically (10 W/m^2 incident light intensity) in SMM containing 0.4% succinate to a cell density of approximately 1.5 1.5×10^9 cells/ml. Prior to inoculation one flask was supplemented with 275 mg K2 TeO3 (equivalent to 138.3 mg Te^IV) to give a final medium concentration of […] K2 TeO3.
850 mg of crude membrane-metal complex was isolated. After purification and extraction with acetone:methanol and ethanol, 203 mg of a finely-divided metallic material resulted. Analysis of a 50.4 mg sample of this material identified 23.2 mg of Te^o (a minimum net purity of 46%). The minimum Te^o deposited in the one-liter culture, therefore, was 93 mg (203 mg×0.46) or 0.7333 mmole. Since the growth medium initially contained 138.3 mg of Te^IV, a minimum Te^IV to Te^o conversion of 67% was obtained.

For the next assay, the system named is R. sphaeroides PRKA^-. Kind of assay: Intrinsic HLR to tellurite in R. sphaeroides mutants (MIC). The following applies: for MIC K2 TeO3: SMM succinate; for Increase in TeO3^2- sensitivity: prkA deletion. In kind it is cell-based, Rhodobacter sphaeroides. The protocol:
(§1) All Proteobacteria were grown at 30° C. with the exception of E. coli which was cultured at 37° C. on a Gyrotary shaker. Cultures of R. sphaeroides and R. gelatinosus were grown in LB, YP, or SMM containing either 0.4% succinate, 0.4% malate, or 0.4% butyrate as a carbon source. Cultures of R. capsulatus were grown in RCVB minimal medium containing 0.4% malate as a carbon source; R. rubrum was grown in SMM containing 0.4% malate, and 0.1% yeast extract. R. palustris and R. viridis were grown in SMM containing 0.4% malate, 0.1% yeast extract, and 50 μg/ml each of p-aminobenzoic acid and cyanocobalamin. […] Anaerobic-dark growth of R. sphaeroides on SMM medium containing DMSO, and photoheterotrophic growth conditions have been previously reported.
(§2) Several growth conditions were examined to determine requirements for tellurite reduction in vivo. Table 5 indicates the growth conditions tested.
(§3) ^a MIC were determined in SMM containing succinate at 30° C.
(§4) ^c Supplemented with 60 mM DMSO.

In another assay the test system is R. sphaeroides PRKB^-. The assay is described as above. The conditions noted are these: for MIC K2 TeO3: SMM succinate. In kind it is cell-based, Rhodobacter sphaeroides. The method, then:
as §1, §2, §3, §4

For assay [2], the system named is Rhodopseudomonas viridis F. Kind of assay: Intrinsic HLR to TeO3^2- (MIC). In kind it is cell-based.
For another assay, the system named is Proteobacteria. In words: Intrinsic HLR to tellurite, comparison across strains. The assay is classed as cell-based. The conditions noted are these: aerobic vs photosynthetic; exception R. gelatinosus.

Structures are written as SMILES. Some results are limits rather than exact numbers.

For the compound `O=[Te]([O-])[O-].[K+].[K+]` [K2 TeO3], the “Resistance to tellurite in words” value in assay [1] is reported as “low resistance”. For the same compound, the “MIC K2 TeO3” value was 5 µg/mL in assay [1] (aerobic, minimal medium); 10 µg/mL in assay [1] (photosynthetic, 10 W/m^2); 350 µg/mL against R. sphaeroides PRKA^- (aerobic); 60 µg/mL in the assay on R. sphaeroides PRKA^- (anaerobic-dark, 60 mM DMSO); 100 µg/mL in the assay with R. sphaeroides PRKA^- (photosynthetic 10 W/m^2); 800 µg/mL against R. sphaeroides PRKB^- (aerobic). Further, the “MIC K2 TeO3” value against R. sphaeroides PRKB^- (anaerobic-dark, 60 mM DMSO) stood at 150 µg/mL; against R. sphaeroides PRKB^- (photosynthetic 10 W/m^2), 500 µg/mL; in assay [2] (aerobic, minimal medium), 80 µg/mL; in assay [2] (photosynthetic, 10 W/m^2), 50 µg/mL. Moreover, the “Te^IV to Te^o conversion” value in the assay on R. sphaeroides 2.4.1 (250 μg/ml K2 TeO3, photoheterotrophic 10 W/m^2, minimum) is on record as no less than 67%. In addition, the “Localization of deposit after subcellular fractionation” value in the assay on R. sphaeroides 2.4.1 (discontinuous sucrose gradient) is “localized to the cytoplasmic membrane”. The “Increase in TeO3^2- sensitivity” value in the assay on R. sphaeroides PRKA^- (aerobic) is “two-fold”; in the assay with R. sphaeroides PRKA^- (photosynthetic and anaerobic-dark/DMSO, at least) it was “at least three- to five-fold”. For the same compound, the “Diminution of HLR to TeO3^2-” value in the assay with R. sphaeroides PRKB^- (single mutation in prkB) is 10-20%. In the assay on Proteobacteria, the “MIC increase, cells grown aerobically” value is given as “approximately 50%”.
